Consider 13 compounds from patent publication US5811452A, “Taxoid reversal agents for drug-resistance in cancer chemotherapy and pharmaceutical compositions thereof” (The Research Foundation of State University of New York, priority 1997, dated 1998).

In one assay the test system is MCF7 (mammary carcinoma). Put plainly: Cytotoxicity evaluation (cell growth inhibition, SRB, 72 h). The format is cell-based. Particulars: read-out: IC50, growth of human tumor cell line MCF7 (breast). The method, then:
(§1) Taxoids, thus synthesized, were evaluated for their cytotoxicity against human tumor cell line, A2780 (ovarian carcinoma), A2780-DX5 (ovarian carcinoma resistant to doxorubicin), MCF7 (mammary carcinoma) or MCF7-R (mammary carcinoma cells resistant to doxorubicin), after 72 hours drug exposure according to the methods of Skehon, et al., "J. Nat. Cancer Inst. 82, 1107, 1990". […] Lower numbers indicate higher potency. The data represent the means values of at least three separate experiments. Lower numbers indicate stronger cytotoxicity.
(§2) Assessment of cytotoxicity, i.e., cell growth inhibition, was determined according to the methods of Skehan, et al. as discussed in J. Nat. Cancer Inst. 82, 1107, 1990. Briefly, cells were plated between 400 and 1200 cells/well in 96 well plates and incubated at 37° C. for 15-18 h prior to drug addition to allow attachment of cells. Compounds tested were solubilized in 100% DMSO and further diluted in RPMI-1640 containing 10 mM HEPES. Each cell line was treated with 10 concentrations of compounds (5 log range). After a 72 h incubation, […] of ice-cold 50% TCA was added to each well and incubated for 1 h at 4° C. Plates were then washed 5 times with tap water to remove TCA, low-molecular-weight metabolites and serum proteins. Sulforhodamine B (SRB) (0.4%, […]) was added to each well. Following a 5 minute incubation at room temperature, plates were rinsed 5 times with 0.1% acetic acid and air dried. Bound dye was solubilized with 10 mM Tris Base (pH 10.5) for 5 min on a gyratory shaker. Optical density was measured at 570 nm.

Assay [1] concerns MCF7-R (mammary carcinoma cells resistant to doxorubicin). The description is as above. Particulars: read-out: IC50, growth of human tumor cell line MCF7-R (breast). The format is cell-based. The method, then:
as §1, §2

Assay [2] relates to drug-resistant breast cancer cells MCF7-R. Put plainly: MDR reversal: cytostatic activity in combination with paclitaxel or doxorubicin. Particulars: for % IC50 reduction (taxoid + Paclitaxel): taxoid 1 μM + paclitaxel. It counts as cell-based, human.
Description: ^a Treatment consists of concurrent exposure of MCF7R cells to
reversing agent (1 μM) for 72 h in vitro.
Assay [3] concerns A2780 (ovarian carcinoma). As to the kind of experiment: Cytotoxicity evaluation (cell growth inhibition, SRB, 72 h). It counts as cell-based. Particulars: read-out: IC50, growth of human tumor cell line A2780 (ovarian). The method, then:
as §1, §2

Assay [4] has as its system A2780-DX5 (ovarian carcinoma resistant to doxorubicin). Described as above. The format is cell-based. The note with it: read-out: IC50, growth of human tumor cell line A2780-DX5 (ovarian). The method, then:
as §1, §2

In a further assay the test system is microtubules. The note with it: cited from earlier work.
The subject of the next assay is P-glycoprotein mdr 1a. The note with it: Taxol-resistant T1 cells; cited from earlier work.
The next assay has as its system P-glycoprotein mdr 1b. Particulars: cited from earlier work.
The next assay has as its system J7 (parent) cells. The note with it: cited from earlier work.
[5] abbreviates: 72 h exposure, doxorubicin-resistant.
The mark [6] stands for this setting: read-out: IC50 (taxoid + Paclitaxel), paclitaxel in presence of taxoid reversing agent (1 μM), 72 h.
Setting [7] is: 72 h exposure, mean of at least three experiments.
[8] abbreviates: Homo sapiens, MCF7R, without reversing agent, 72 h, read-out: IC50 of anticancer drug alone.
[9] abbreviates: Homo sapiens, A2780, 72 h exposure, mean of at least three experiments.
Where [10] appears, read: Homo sapiens, 72 h exposure, doxorubicin-resistant.
Setting [11] is: Homo sapiens, MCF7, 72 h exposure.
[12] abbreviates: Homo sapiens, MCF7R, 72 h exposure, doxorubicin-resistant.

pIC50: −log10 of the molar value. Read-outs that look alike come from different tables or passages of the source. Where only a bound is given, the exact number is not on record here.

The pIC50 is the negative decadic logarithm of the IC50, by convention in mol/L.

As to “7,10-Bis[3-(4-benzoylphenyl)prop-2-enoyl]-10-deacetylbaccatin III [SB-RA-4102]”, the pIC50 in the assay with MCF7 (mammary carcinoma) (72 h exposure) was less than 5.00; in [1] (setting [5]) it was less than 5.00; in assay [2] (setting [6]) it was 8.57. Moreover, the “% IC50 reduction (taxoid + Paclitaxel)” value in assay [2] (72 h) was 99.7%.

“7-[3-(2-Naphtyl)propanoyl]-13-acetylbaccatin III [SB-RA-30012]”: the pIC50 in the assay with MCF7 (mammary carcinoma) (72 h exposure) was less than 5.00; in assay [1] (setting [5]), less than 5.00; in assay [2] (setting [6]), 8.24. For the same compound, the “% IC50 reduction (taxoid + Paclitaxel)” value in assay [2] (72 h) is 99.3%.

“13-(4-Benzoylcinnamoyl)-7,10-bis(2,2,2-trichloroethoxycarbonyl)baccatin III [SB-RA-110]”: the pIC50 (in assay [3] (setting [7]); in [4] (setting [5]); with MCF7 (mammary carcinoma) (72 h exposure); in assay [1] (setting [5])) was less than 5.00 throughout.

As to `COc1cccc2c1C(=O)c1c(O)c3c(c(O)c1C2=O)C[C@@](O)(C(=O)CO)C[C@@H]3O[C@H]1C[C@H](N)[C@H](O)[C@H](C)O1` [Doxorubicin, reference compound], the pIC50 in [3] (Homo sapiens, A2780, 72 h) was 8.30; in assay [4] (Homo sapiens, 72 h), 6.45; with MCF7 (mammary carcinoma) (Homo sapiens, MCF7, 72 h), 7.77; in assay [1] (Homo sapiens, MCF7R, 72 h), 5.72; in [2] (setting [8]), 5.72.

On to `CC(=O)O[C@H]1C(=O)[C@@]2(C)[C@H]([C@H](OC(=O)c3ccccc3)[C@]3(O)C[C@H](OC(=O)[C@H](O)[C@@H](NC(=O)c4ccccc4)c4ccccc4)C(C)=C1C3(C)C)[C@]1(OC(C)=O)CO[C@@H]1C[C@@H]2O` [Paclitaxel, reference compound], for which the pIC50 in the assay with MCF7 (mammary carcinoma) (Homo sapiens, MCF7, 72 h) is 8.77; in assay [1] (Homo sapiens, MCF7R, 72 h), 6.07; in assay [2] (Homo sapiens, MCF7R, read-out: IC50 of paclitaxel, taxoid at 1 or 3 μM (from 860 to 42~1.6)), 6.07; in [2] (setting [8]), 6.07.

Regarding `CC(=O)O[C@@]12CO[C@@H]1C[C@H](O)[C@@]1(C)C(=O)[C@H](O)C3=C(C)[C@@H](OC(=O)/C=C/c4ccc5ccccc5c4)C[C@@](O)([C@@H](OC(=O)c4ccccc4)[C@H]21)C3(C)C` [SB-RA-2001, 13-[3-(2-Naphthyl)prop-2-enoyl]-10-deacetylbaccatin III], the pIC50 in [3] (setting [7]) was 5.59; in [4] (setting [5]), 5.42; in the assay with MCF7 (mammary carcinoma) (72 h exposure) it was 5.70; in assay [1] (setting [5]) it was 5.30.

Consider `CC(=O)O[C@@]12CO[C@@H]1C[C@H](O)[C@@]1(C)C(=O)[C@H](OC(=O)/C=C/c3ccc(C(=O)c4ccccc4)cc3)C3=C(C)[C@@H](O)C[C@@](O)([C@@H](OC(=O)c4ccccc4)[C@H]21)C3(C)C` [SB-RA-4001, 10-[(4-Benzoyl)cinnamoyl]-10-deacetylbaccatin III], for which the pIC50 in [3] (setting [9]) is 5.10; in assay [4] (setting [10]), 5.00; in the assay with MCF7 (mammary carcinoma) (setting [11]), 5.07; in assay [1] (setting [12]), less than 5.00. Further, in assay [2] (72 h), the “% IC50 reduction (taxoid + Paclitaxel)” value is 95%.

For `CC(=O)O[C@H]1C(=O)[C@]2(C)[C@@H](OC(=O)c3ccc4ccccc4c3)C[C@H]3OC[C@@]3(OC(C)=O)[C@H]2[C@H](OC(=O)c2ccccc2)[C@]2(O)C[C@H](O)C(C)=C1C2(C)C` [SB-RA-30001, 7-(Naphthalene-2-carbonyl)baccatin III], the pIC50 is 5.28 in the assay on MCF7 (mammary carcinoma) (setting [11]) and 4.96 in assay [1] (setting [12]). In assay [2] (72 h), the “% IC50 reduction (taxoid + Paclitaxel)” value was 97.5%.

In the case of `CC(=O)O[C@H]1C(=O)[C@]2(C)[C@@H](OC(=O)/C=C/c3ccc4ccccc4c3)C[C@H]3OC[C@@]3(OC(C)=O)[C@H]2[C@H](OC(=O)c2ccccc2)[C@]2(O)C[C@H](O)C(C)=C1C2(C)C` [SB-RA-30011, 7-[3-(2-naphthyl)-2-propenoyl]baccatin III], the pIC50 is 5.20 in [3] (setting [9]), 5.17 in assay [4] (setting [10]), 5.33 with MCF7 (mammary carcinoma) (setting [11]) and 5.10 in assay [1] (setting [12]). For the same compound, in assay [2] (1 μM taxoid), the “enhancement of the tumor growth inhibitory activity of doxorubicin” value is on record as 92%. The “% IC50 reduction (taxoid + Doxorubicin)” value in assay [2] (taxoid 1 μM + doxorubicin, 72 h) was 92%. The “% IC50 reduction (taxoid + Paclitaxel)” value in [2] (72 h) was found to be 96%.

Regarding `CC(=O)O[C@H]1C(=O)[C@]2(C)[C@@H](OC(=O)CCc3ccc4ccccc4c3)C[C@H]3OC[C@@]3(OC(C)=O)[C@H]2[C@H](OC(=O)c2ccccc2)[C@]2(O)C[C@H](O)C(C)=C1C2(C)C` [SB-RA-30021, 7-[3-(2-Naphthyl)propanoyl]baccatin III], the pIC50 in [3] (setting [9]) is 5.24; in assay [4] (setting [10]), 5.28; with MCF7 (mammary carcinoma) (setting [11]), 5.31; in assay [1] (setting [12]), 5.30. In addition, the “% IC50 reduction (taxoid + Paclitaxel)” value in [2] (72 h) was found to be 96%.

Take `CC(=O)O[C@H]1C(=O)[C@]2(C)[C@@H](OC(=O)/C=C/c3ccc(C(=O)c4ccccc4)cc3)C[C@H]3OC[C@@]3(OC(C)=O)[C@H]2[C@H](OC(=O)c2ccccc2)[C@]2(O)C[C@H](O)C(C)=C1C2(C)C` [SB-RA-31011, 7-[4-Benzoylcinnamoyl]baccatin III]: the results for the pIC50 (with MCF7 (mammary carcinoma) (setting [11]); in [1] (setting [12])) were 4.96 and less than 5.00, respectively. Also, in [2] (72 h), the “% IC50 reduction (taxoid + Paclitaxel)” value came to 99.8%.

Regarding `CC(=O)O[C@H]1C(=O)[C@]2(C)[C@@H](OC(=O)/C=C/c3ccc(C(=O)c4ccccc4)cc3)C[C@H]3OC[C@@]3(OC(C)=O)[C@H]2[C@H](OC(=O)c2ccccc2)[C@]2(O)C[C@H](OC(C)=O)C(C)=C1C2(C)C` [SB-RA-31012], the pIC50 (in the assay on MCF7 (mammary carcinoma) (setting [11]); in [1] (setting [12])) was less than 5.00 throughout. In assay [2] (72 h), the “% IC50 reduction (taxoid + Paclitaxel)” value amounted to 99.7%.

In the case of `CC(=O)O[C@H]1C(=O)[C@@]2(C)[C@H]([C@H](OC(=O)c3ccccc3)[C@]3(O)C[C@H](OC(=O)[C@H](O)[C@@H](NC(=O)CCc4ccc(C(=O)c5ccccc5)cc4)c4ccccc4)C(C)=C1C3(C)C)[C@]1(OC(C)=O)CO[C@@H]1C[C@@H]2O` [SB-T-5101], the binding to microtubules result with microtubules is on record as “binds to microtubules as expected”. The “binding to P-glycoprotein mdr 1a” value with P-glycoprotein mdr 1a is “binds to both mdr 1a (major) and mdr 1b (minor) in T1 cells”. Moreover, the “binding to P-glycoprotein mdr 1b” value in the assay with P-glycoprotein mdr 1b (Taxol-resistant T1 cells) was “binds to both mdr 1a (major) and mdr 1b (minor) in T1 cells”; in the assay on P-glycoprotein mdr 1b (vinblastine-resistant V1 cells) it was “only binds to mdr 1b in V1 cells”. Also, the “photoaffinity labeling of non-drug resistant cells” value in the assay with J7 (parent) cells was “no photoaffinity labeling is observed”.
